Laboratory results: patent US8278304B2, “Substituted 4-hydroxypyrimidine-5-carboxamides” (Merck Sharp & Dohme Corp., priority 2008, dated 2012)

Target: T1, PHD2 (Homo sapiens, UniProt Q9GZT9)
T1 construct: FLAG-tagged full length PHD2 expressed in and purified from baculovirus-infected Sf9 cells; FLAG; made in house; host or cells: baculovirus-infected Sf9 cells
Assay: PHD2 / HIF-1α peptide hydroxylation assay, time resolved fluorescence (VHL complex detection)
Type: biochemical
Settings: FLAG-tagged full length PHD2; 0.2 μM 2-oxoglutarate, 0.5 μM HIF-1α peptide; read-out: PHD2 Activity (PHD2 binding activity expressed as IC50 (nM))
Procedure: To each well of a 96-well plate was added 1 μL of test compound in DMSO and 20 μl of assay buffer (50 mM Tris pH 7.4/0.01% Tween-20/0.1 mg/ml bovine serum albumin/10 μM ferrous sulfate/1 mM sodium ascorbate/20 μg/ml catalase) containing 0.15 μg/ml FLAG-tagged full length PHD2 expressed in and purified from baculovirus-infected Sf9 cells. After a 30 min preincubation at room temperature, the enzymatic reactions were initiated by the addition of 4 μL of substrates (final concentrations of 0.2 μM 2-oxoglutarate and 0.5 μM HIF-1α peptide biotinyl-[…]).

T1 sequence (Q9GZT9 whole entry): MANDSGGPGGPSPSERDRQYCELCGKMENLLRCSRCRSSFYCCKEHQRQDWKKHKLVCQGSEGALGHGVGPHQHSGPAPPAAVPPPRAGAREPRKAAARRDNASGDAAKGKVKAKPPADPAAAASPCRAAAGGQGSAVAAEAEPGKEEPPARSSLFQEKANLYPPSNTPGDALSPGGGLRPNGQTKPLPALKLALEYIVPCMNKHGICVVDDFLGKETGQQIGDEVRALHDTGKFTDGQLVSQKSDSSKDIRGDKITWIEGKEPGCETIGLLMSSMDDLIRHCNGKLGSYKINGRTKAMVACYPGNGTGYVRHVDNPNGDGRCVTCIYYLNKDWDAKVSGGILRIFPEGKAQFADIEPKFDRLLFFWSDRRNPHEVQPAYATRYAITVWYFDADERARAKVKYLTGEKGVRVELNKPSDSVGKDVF

Row | SMILES | IC50
1 | COCc1ccc(C(NC(=O)c2cnc(-c3cccnn3)nc2O)c2ccc(OC)cc2)cc1 (racemic) [Example 181] | ≤ 10 nM
2 | CC(NC(=O)c1cnc(-n2cccn2)nc1O)c1ccc(C(F)(F)F)nc1 (single isomer, unassigned) [Example 141, 4-hydroxy-2-(1H-pyrazol-1-yl)-N-{1-[6-(trifluoromethyl)pyridin-3-yl]ethyl}pyrimidine-5-carboxamide] | ≤ 10 nM
3 | O=C(NC(c1ccccc1)c1ccc(C(F)(F)F)nc1)c1cnc(-n2cccn2)nc1O (single isomer, unassigned) [Example 142, 4-hydroxy-N-{phenyl[6-(trifluoromethyl)pyridin-3-yl]methyl}-2-(1H-pyrazol-1-yl)pyrimidine-5-carboxamide] | ≤ 10 nM
4 | O=C(NC(c1ccccc1)c1ccc(C(F)(F)F)nc1)c1cnc(-n2cccn2)nc1O (single isomer, unassigned) [Example 143, 4-hydroxy-N-{phenyl[6-(trifluoromethyl)pyridin-3-yl]methyl}-2-(1H-pyrazol-1-yl)pyrimidine-5-carboxamide] | ≤ 10 nM
5 | COc1ccc(C(NC(=O)c2cnc(-c3cccnn3)nc2O)c2nc(C)cs2)cc1 (single isomer, unassigned) [Example 144, 4-hydroxy-N-[(4-methoxyphenyl)(4-methyl-1,3-thiazol-2-yl)methyl]-2-(pyridazin-3-yl)pyrimidine-5-carboxamide] | ≤ 10 nM
6 | COc1ccc(C(NC(=O)c2cnc(-c3cccnn3)nc2O)c2nc(C)cs2)cc1 (single isomer, unassigned) [Example 145, 4-hydroxy-N-[(4-methoxyphenyl)(4-methyl-1,3-thiazol-2-yl)methyl]-2-(pyridazin-3-yl)pyrimidine-5-carboxamide] | ≤ 10 nM
7 | COc1ccc(C(NC(=O)c2cnc(-c3cccnn3)nc2O)c2ccc(C)nc2)cc1 (single isomer, unassigned) [Example 146, 4-hydroxy-N-[(4-methoxyphenyl)(6-methylpyridin-3-yl)methyl]-2-(pyridazin-3-yl)pyrimidine-5-carboxamide] | ≤ 10 nM
8 | COc1ccc(C(NC(=O)c2cnc(-c3cccnn3)nc2O)c2cccc(C#N)c2)cc1 (single isomer, unassigned) [Example 147, N-[(3-cyanophenyl)(4-methoxyphenyl)methyl]-4-hydroxy-2-(pyridazin-3-yl)pyrimidine-5-carboxamide] | ≤ 10 nM
9 | COc1ccc(C(NC(=O)c2cnc(-c3cccnn3)nc2O)c2cccc(C#N)c2)cc1 (single isomer, unassigned) [Example 148, N-[(3-cyanophenyl)(4-methoxyphenyl)methyl]-4-hydroxy-2-(pyridazin-3-yl)pyrimidine-5-carboxamide] | ≤ 10 nM
10 | COc1ccc(C(NC(=O)c2cnc(-c3cccnn3)nc2O)c2cccc(C)n2)c(OC)c1 (single isomer, unassigned) [Example 149, N-[(2,4-dimethoxyphenyl)(6-methylpyridin-2-yl)methyl]-4-hydroxy-2-(pyridazin-3-yl)pyrimidine-5-carboxamide] | ≤ 10 nM
11 | COc1ccc(C(NC(=O)c2cnc(-c3cccnn3)nc2O)c2ccc(C#N)cc2)cc1 (single isomer, unassigned) [Example 150, N-[(4-cyanophenyl)(4-methoxyphenyl)methyl]-4-hydroxy-2-(pyridazin-3-yl)pyrimidine-5-carboxamide] | ≤ 10 nM
12 | COc1ccc(C(NC(=O)c2cnc(-c3cccnn3)nc2O)c2ccc(C#N)cc2)cc1 (single isomer, unassigned) [Example 151, N-[(4-cyanophenyl)(4-methoxyphenyl)methyl]-4-hydroxy-2-(pyridazin-3-yl)pyrimidine-5-carboxamide] | ≤ 10 nM
13 | COc1ccc(C(NC(=O)c2cnc(-c3cccnn3)nc2O)c2ccc(OC(F)(F)F)cc2)cc1 (single isomer, unassigned) [Example 152, 4-hydroxy-N-{(4-methoxyphenyl)[4-(trifluoromethoxy)phenyl]methyl}-2-(pyradazin-3-yl)pyrimidine-5-carboxamide] | ≤ 10 nM
14 | COc1ccc(C(NC(=O)c2cnc(-c3cccnn3)nc2O)c2ccc(C#N)cc2)c(OC)c1 (single isomer, unassigned) [Example 154, N-[(4-cyanophenyl)(2,4-dimethoxyphenyl)methyl]-4-hydroxy-2-(pyridazin-3-yl)pyrimidine-5-carboxamide] | ≤ 10 nM
15 | COc1ccc(C(NC(=O)c2cnc(-c3cccnn3)nc2O)c2ccc(C#N)cc2)c(OC)c1 (single isomer, unassigned) [Example 155, N-[(4-cyanophenyl)(2,4-dimethoxyphenyl)methyl]-4-hydroxy-2-(pyridazin-3-yl)pyrimidine-5-carboxamide] | ≤ 10 nM
16 | COc1ccc(C(NC(=O)c2cnc(-c3cccnn3)nc2O)c2ccc(O)cc2)cc1 (single isomer, unassigned) [Example 156, 4-hydroxy-N-[(4-hydroxyphenyl)(4-methoxyphenyl)methyl]-2-(pyridazin-3-yl)pyrimidine-5-carboxamide] | ≤ 10 nM
17 | COc1ccc(C(NC(=O)c2cnc(-c3cccnn3)nc2O)c2ccc(O)cc2)cc1 (single isomer, unassigned) [Example 157, 4-hydroxy-N-[(4-hydroxyphenyl)(4-methoxyphenyl)methyl]-2-(pyridazin-3-yl)pyrimidine-5-carboxamide] | ≤ 10 nM

Row | SMILES | IC50
18 | CC(C)CC(NC(=O)c1cnc(-c2cccnn2)nc1O)c1ccc(C#N)cc1 (single isomer, unassigned) [Example 158, N-[1-(4-cyanophenyl)-3-methylbutyl]-4-hydroxy-2-(pyridazin-3-yl)pyrimidine-5-carboxamide] | ≤ 10 nM
19 | CC(C)CC(NC(=O)c1cnc(-c2cccnn2)nc1O)c1ccc(C#N)cc1 (single isomer, unassigned) [Example 159, N-[1-(4-cyanophenyl)-3-methylbutyl]-4-hydroxy-2-(pyridazin-3-yl)pyrimidine-5-carboxamide] | 10 to 100 nM
20 | COc1ccc(CC(NC(=O)c2cnc(-c3cccnn3)nc2O)c2ccc(C#N)cc2)cc1 (single isomer, unassigned) [Example 160, N-[1-(4-cyanophenyl)-2-(4-methoxyphenyl)ethyl]-4-hydroxy-2-(pyridazin-3-yl)pyrimidine-5-carboxamide] | 10 to 100 nM
21 | COc1ccc(CC(NC(=O)c2cnc(-c3cccnn3)nc2O)c2ccc(C#N)cc2)cc1 (single isomer, unassigned) [Example 161, N-[1-(4-cyanophenyl)-2-(4-methoxyphenyl)ethyl]-4-hydroxy-2-(pyridazin-3-yl)pyrimidine-5-carboxamide] | ≤ 10 nM
22 | N#Cc1ccc(C(NC(=O)c2cnc(-c3cccnn3)nc2O)C2CCCCC2)cc1 (single isomer, unassigned) [Example 162, N-[(4-cyanophenyl)(cyclohexyl)methyl]-4-hydroxy-2-(pyridazin-3-yl)pyrimidine-5-carboxamide] | 100 to 1000 nM
23 | N#Cc1ccc(C(NC(=O)c2cnc(-c3cccnn3)nc2O)C2CCCCC2)cc1 (single isomer, unassigned) [Example 163, N-[(4-cyanophenyl)(cyclohexyl)methyl]-4-hydroxy-2-(pyridazin-3-yl)pyrimidine-5-carboxamide] | ≤ 10 nM
24 | COc1ccc(C(NC(=O)c2cnc(-c3cccnn3)nc2O)c2ccc3c(c2)CCO3)cc1 (single isomer, unassigned) [Example 164, N-[2,3-dihydro-1-benzofuran-5-yl(4-methoxyphenyl)methyl]-4-hydroxy-2-(pyridazin-3-yl)pyrimidine-5-carboxamide] | ≤ 10 nM
25 | COCc1ccc(C(NC(=O)c2cnc(-c3cccnn3)nc2O)c2ccc(OC)cc2)cc1 (single isomer, unassigned) [Example 182, 4-Hydroxy-N-[[4-(methoxymethyl)phenyl](4-methoxyphenyl)methyl]-2-pyridazin-3-ylpyrimidine-5-carboxamide] | ≤ 10 nM
26 | COCc1ccc(C(NC(=O)c2cnc(-c3cccnn3)nc2O)c2ccc(OC)cc2)cc1 (single isomer, unassigned) [Example 183, 4-Hydroxy-N-[[4-(methoxymethyl)phenyl](4-methoxyphenyl)methyl]-2-pyridazin-3-ylpyrimidine-5-carboxamide] | ≤ 10 nM
27 | COc1ccc(C(NC(=O)c2cnc(-c3cccnn3)nc2O)c2ccc(OC)nc2)cc1 (single isomer, unassigned) [Example 190] | ≤ 10 nM
28 | COc1ccc(C(NC(=O)c2cnc(-c3cccnn3)nc2O)c2ccc(OC)nc2)cc1 (single isomer, unassigned) [Example 191] | ≤ 10 nM
29 | CC(C)(NC(=O)c1cnc(-c2cc(Br)ccn2)nc1O)c1ccccc1 [Example 1, 2-(4-Bromopyridin-2-yl)-4-hydroxy-N-(1-methyl-1-phenylethyl)pyrimidine-5-carboxamide] | 10 to 100 nM
30 | O=C(O)c1ccc(-c2ncc(C(=O)NCc3ccc(F)cc3)c(O)n2)nc1 [Example 3, 6-(5-{[(4-Fluorobenzyl)amino]carbonyl}-4-hydroxypyrimidin-2-yl)nicotinic acid] | 10 to 100 nM
31 | O=C(NC(c1ccc(O)cc1)c1ccc(O)cc1)c1cnc(-c2cccnn2)nc1O [Example 6, N-[bis(4-hydroxyphenyl)methyl]-4-hydroxy-2-ylpyridazin-3-ylpyrimidine-5-carboxamide] | ≤ 10 nM
32 | O=C(NCc1ccc(F)cc1)c1cnc(-c2ccccn2)nc1O [Example 7, N-(4-fluorobenzyl)-4-hydroxy-2-pyridin-2-ylpyrimidine-5-carboxamide] | 100 to 1000 nM
33 | O=C(NCc1ccc(Br)cc1)c1cnc(-n2cccn2)nc1O [Example 9, N-(4-bromobenzyl)-4-hydroxy-2-(1H-pyrazol-1-yl)pyrimidine-5-carboxamide] | ≤ 10 nM
